Experimental data: patent US6855802B1, “Mutated peptide compounds, derived from hsp70, useful in cancer immunotherapy” (Institut Gustave Roussy, priority 1998, dated 2005)

B1: mutated hsp70-2 decapeptide 286-295 SLFEGIDIYT (peptide)
peptide: SLFEGIDIYT
notes: Synthetic peptide; carries the tumour mutation (isoleucine at hsp70 position 293, position 8 of the peptide)
B2: mutated hsp70-2 nonapeptide 286-294 SLFEGIDIY (peptide)
peptide: SLFEGIDIY
notes: Synthetic peptide; isoleucine at hsp70 position 293

Legend:
[1] = system: autologous cell line transformed with EBV / 11C2 CTL; experiment: Peptide recognition assay: chromium release, lysis by 11C2 CTL of peptide-incubated autologous EBV-transformed cells; assay type: cell-based, human; settings: for recognition by 11C2 CTL: peptides carrying the HLA-A*0201 binding motif, 18 peptides assayed; for EC50: 11C2 CTL, E/T 31/1, 51Cr-labeled autologous EBV-transformed cells incubated 1 hour with peptide, 4 h release, read-out: maximum half-lysis (peptide concentration)
Experimental: 2000 cells transformed with EBV and labeled with ^51Cr were incubated for 1 hour in the presence of the indicated hsp70-2 peptides (SEQ ID NOS. 2, 7, 1, and 8) at multiple concentrations. The 11C2 CTL was then added at an effector/target ratio (E/T) of 31/1. Chromium release was measured 4 hours later. The asterisks indicate the mutated amino acids.
The cytotoxicity assays were carried out using the standard 4-hour chromium release assay, as described above, Angevin et al, (1997). In summary, 2×10^3 51Cr-labeled target cells were incubated for 4 hours at 37° C., with the effector cells at various E/T ratios, in a final volume of 200 μl. With regard to lysis inhibition by the mAbs, the target cells were preincubated for two hours in the presence of saturating concentrations of mAb, before adding the effector cells. At the end of the incubation, 40 μl of supernatant were transferred to Lumaplate 96 solid scintillation plates (Packard Instruments, Meriden, Conn.), were dried overnight and counted in a beta-radioactivity counter (Packard Instruments).
In the screening assay, the peptides used were synthesized by “PepSet technology” (Chiron Technologies, Suresnes, France). For the functional assays, the peptides were synthesized on solid phase using F-moc (temporary NH2-terminal protection), and were purified by preparative HPLC. […] The lyophilized peptides were dissolved in […] in water, and conserved at −20° C. The peptides were used in a chromium release assay. 2000 autologous cells transformed with EBV, and labeled with ^51Cr, were incubated for 1 hour at 37° C. on 96-well plates, with diverse concentrations of peptides, before adding 11C2 CTLs.

[2] = system: CD8+ cells from HLA-A2-positive donors; experiment: Elispot-IFNγ assay with CD8+ cells and peptide-loaded T2 cells; assay type: cell-based, human; settings: interferon gamma secretion, no in vitro culturing or cytokines
[3] = target: T1, HLA-A2 (HLA-A*0201) (human); experiment: T2 cell HLA-A2 up-regulation, flow cytometry with mAb MA2.1
T1 construct: whole, on cells; also called HLA-A2.1
Experimental: T2 cells were incubated at 26° C. for 16 hours in serum-free medium, with or without peptide at a concentration of 20 μm. Next, the peptides (SEQ ID NOS. 2, 7, 1, and 8) were again added, and the cells were incubated at 37° C. […] The amino acid sequences of the peptides are represented. The mutated amino acid is represented by an asterisk.

Molecule	recognition by 11C2 CTL [1]	induction of human CD8 lymphocytes from healthy HLA-A2+ individuals [2]	EC50 [1] [nM]	binding result [3]
wild-type nonapeptide 286-294: wild-type hsp70-2 nonapeptide, amino acids 286-294 (SLFEGIDFY; listed as Homo sapiens) [reference compound]	not			
SLFEGIDIY [SEQ ID NO: 1, mutated hsp70-2 nonapeptide, amino acids 286 to 294, isoleucine at position 293]	recognized	possible to induce	500	
SLFEGIDFYT [SEQ ID NO: 7, wild-type hsp70-2 decapeptide 286-295, reference compound]	recognizes		50	
SLFEGIDIYT [SEQ ID NO: 2, mutated hsp70-2 decapeptide 286-295 carrying the mutant isoleucine residue at position 8]	recognized	possible to induce	0.05	
SLFEGIDFYT (Synthetic peptide) [wild-type hsp70-2 decapeptide 286-295 SLFEGIDFYT]				binds
B1				binds
SLFEGIDFY (2, 7, 1 and 8) [wild-type hsp70-2 nonapeptide 286-294]				binds
B2				binds
